From publication PMC5485575, “Arginine kinase from Haemonchus contortus decreased the proliferation and increased the apoptosis of goat PBMCs in vitro” (Parasites & Vectors, 2017)

Molecular target: T1, rHc-AK (Haemonchus contortus, UniProt K0DG62)
T1 construct: E. coli BL21(DE3), Ni-NTA
Assay: fluorimetric ADP formation assay (Universal Fluorimetric Kinase Assay kit)
Type: biochemical
Details: room temperature, 30 min; 0-10 ug enzyme; substrates of the kinase reaction solution not named

T1 sequence (K0DG62 entry or part of it): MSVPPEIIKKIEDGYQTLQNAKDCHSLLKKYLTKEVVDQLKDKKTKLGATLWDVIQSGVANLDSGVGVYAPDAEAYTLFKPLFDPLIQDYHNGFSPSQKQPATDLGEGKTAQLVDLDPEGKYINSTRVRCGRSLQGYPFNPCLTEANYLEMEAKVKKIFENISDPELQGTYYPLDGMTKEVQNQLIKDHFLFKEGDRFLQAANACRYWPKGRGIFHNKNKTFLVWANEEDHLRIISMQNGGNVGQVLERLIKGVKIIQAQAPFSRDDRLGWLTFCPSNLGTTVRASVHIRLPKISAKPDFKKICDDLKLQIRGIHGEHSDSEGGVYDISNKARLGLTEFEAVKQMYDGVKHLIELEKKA

Question: For `Nc1ncnc2c1ncn2[C@@H]1O[C@H](COP(=O)(O)OP(=O)(O)O)[C@@H](O)[C@H]1O` [ADP], which “fluorimetric ADP formation assay (Universal Fluorimetric Kinase Assay kit)” value is on record?
Answer: The value was “results showed a remarkable augmentation in ADP generation with increased period”.
